Target: ATP-dependent translocase ABCB1 (Homo sapiens, UniProt P08183)
Assay: TP_TRANSPORTER: inhibition of Doxorubicin and Vinblastine efflux in drug-resistant MCF-7 cells
Type: functional, cell-based
Conditions: mcf7

Sequence of ATP-dependent translocase ABCB1 (P08183 whole entry): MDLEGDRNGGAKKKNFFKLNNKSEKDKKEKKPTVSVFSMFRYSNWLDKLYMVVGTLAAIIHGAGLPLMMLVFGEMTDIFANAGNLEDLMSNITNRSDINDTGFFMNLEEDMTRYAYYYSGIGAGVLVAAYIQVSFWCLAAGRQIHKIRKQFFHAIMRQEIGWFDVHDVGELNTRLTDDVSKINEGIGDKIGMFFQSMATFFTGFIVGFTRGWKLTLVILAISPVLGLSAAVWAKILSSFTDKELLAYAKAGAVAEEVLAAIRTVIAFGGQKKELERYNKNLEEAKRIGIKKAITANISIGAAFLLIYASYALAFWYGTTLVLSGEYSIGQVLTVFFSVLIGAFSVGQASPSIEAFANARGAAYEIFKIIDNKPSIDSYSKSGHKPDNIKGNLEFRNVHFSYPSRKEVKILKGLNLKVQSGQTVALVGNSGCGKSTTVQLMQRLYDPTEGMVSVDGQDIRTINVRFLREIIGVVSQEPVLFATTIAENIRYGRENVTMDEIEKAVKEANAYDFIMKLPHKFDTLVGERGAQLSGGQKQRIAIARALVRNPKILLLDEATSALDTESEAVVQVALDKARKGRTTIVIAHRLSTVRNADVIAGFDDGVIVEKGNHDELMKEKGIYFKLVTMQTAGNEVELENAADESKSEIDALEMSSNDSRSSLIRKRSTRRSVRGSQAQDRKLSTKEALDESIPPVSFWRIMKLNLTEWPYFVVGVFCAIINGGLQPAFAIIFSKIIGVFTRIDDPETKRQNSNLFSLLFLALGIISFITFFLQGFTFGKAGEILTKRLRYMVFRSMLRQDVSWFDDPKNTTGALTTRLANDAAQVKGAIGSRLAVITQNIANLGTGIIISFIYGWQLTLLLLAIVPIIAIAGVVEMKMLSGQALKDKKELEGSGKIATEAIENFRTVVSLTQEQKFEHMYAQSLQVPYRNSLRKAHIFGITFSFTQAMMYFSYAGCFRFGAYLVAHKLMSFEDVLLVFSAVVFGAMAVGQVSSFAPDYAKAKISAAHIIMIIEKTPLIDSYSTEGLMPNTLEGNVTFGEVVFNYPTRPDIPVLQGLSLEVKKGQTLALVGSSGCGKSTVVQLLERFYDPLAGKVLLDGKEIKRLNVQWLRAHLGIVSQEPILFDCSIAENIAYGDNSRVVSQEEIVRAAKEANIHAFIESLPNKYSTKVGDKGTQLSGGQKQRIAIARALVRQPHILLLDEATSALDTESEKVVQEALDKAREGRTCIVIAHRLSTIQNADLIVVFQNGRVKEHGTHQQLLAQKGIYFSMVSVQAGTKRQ

Activity: inhibitor [+]
Sequence: ROSEMARY EXTRACT

From ChEMBL document CHEMBL2074156, “Inhibition of P-glycoprotein activity and reversal of multidrug resistance in vitro by rosemary extract” (Eur J Cancer, 1999)
